Assay results from paper PMC8219378, “A putative structural mechanism underlying the antithetic effect of homologous RND1 and RhoD GTPases in mammalian plexin regulation” (eLife, 2021).
Values belong to the molecule of their own block, whether it stands above or below them.

Key:
[1] = target: T1, RhoD/plexin B2-RBD complex (Homo sapiens, UniProt O00212, Q75L); assay: X-ray crystal structure, […] Å; details: Mg2+; GTP-binding site of RhoD; RhoD loaded by EDTA exchange; complex with plexin B2 RBD
T1 construct: human RhoD 8-194 Q75L (catalytically dead), His6-tag removed by 3C protease, E. coli BL21(DE3); mouse plexin B2 intracellular region 1274-1842, tag removed, E. coli ArcticExpress(DE3), degraded in drops to RBD (1463-1565, domain-swapped dimer); with Plexin-B2 (Mus musculus)
T1 sequence (O00212 8-194 Q75L): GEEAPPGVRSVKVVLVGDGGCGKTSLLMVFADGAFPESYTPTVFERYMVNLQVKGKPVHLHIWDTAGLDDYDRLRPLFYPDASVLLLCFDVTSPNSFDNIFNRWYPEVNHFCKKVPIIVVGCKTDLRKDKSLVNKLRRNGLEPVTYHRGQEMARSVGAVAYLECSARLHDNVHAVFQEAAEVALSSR
T1 sequence (B2RXS4 1463-1565 partner): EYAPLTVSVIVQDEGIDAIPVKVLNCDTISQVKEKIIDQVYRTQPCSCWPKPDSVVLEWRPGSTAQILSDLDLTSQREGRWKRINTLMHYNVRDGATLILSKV

[2] = target: T2, human RhoD (residues 8-194) with the Q75L mutation, bound to GMP-PNP (human, UniProt O00212 8-194, Q75L); assay: crystal structure; plexin B2 (1274-1842) and GMP-PNP-loaded RhoD mixed at 1:1 molar ratio, 6 mg/mL; crystals grown for over a month at 20 C in 0.2 M MgCl2, 22% PEG3350, 100 mM MIB pH 6.8; molecular replacement, 3.1 A; two RhoD and two RBD in the asymmetric unit; details: both partners purified
T2 construct: Loaded with the GTP analogue GMP-PNP and Mg2+ before crystallization; His6 tag removed with human rhinovirus 3C protease; also called GMP-PNP-loaded RhoD; source: E. coli BL21 (DE3), purified (HisTrap, anion exchange, Superdex 75); not shown: His6, N-terminal, cleaved
T2 sequence (looked up): T1 sequence (O00212 8-194 Q75L)

Molecule: Nc1nc2c(ncn2[C@@H]2O[C@H](COP(=O)(O)OP(=O)(O)NP(=O)(O)O)[C@@H](O)[C@H]2O)c(=O)[nH]1 [GMP-PNP, guanosine 5′-[β,γ-imido]triphosphate]
X-ray crystal structure, 3.1 Å [1]: complex of mouse plexin B2 and human RhoD bound to the GTP analogue GMP-PNP

binding result [2]: binds
B1: mouse plexin B2 RBD (Rho-GTPase-binding domain), as found in the crystal (domain or fragment, UniProt B2RXS4 1463-1565, looked up)
chain: T1 sequence (B2RXS4 1463-1565 partner)
notes: Plexin B2, mouse; Expressed as the intracellular region without the juxtamembrane region (residues 1274-1842); it degraded during crystallization and the crystal held only the RBD, built as residues 1463-1509 and 1510-1565; The range is that of the residues modelled in the structure; In the crystal two RBD chains form a domain-swapped dimer (swap between residues 1509 and 1510), which the authors …
